Reference: patent US10336792B2, “Antimicrobial peptide dendrimers” (priority 2014, dated 2019)
Values after ≈ are worked out from the molar mass of the structure shown. Positions of bridges follow the written chain, without caps; N, C: chain ends. Non-standard residues stand in square brackets, D forms with d. Residues, ends and D or L forms follow the SMILES beside them. Groups on a side chain read outwards from the residue. Chains are numbered I, II in the order given. *: point of attachment. Decanoyl = CCCCCCCCCC(=O)*; Orn = NCCC[C@H](N)C(=O)O; Dab = NCC[C@H](N)C(=O)O

Assays:
[1] = tested on: Pseudomonas aeruginosa (strain PA01); assay: microbe, parasite or virus in culture; assay type: cell-based; details: LB medium, serial 2/3 dilution, 37 °C, 18-24 h
How it was run: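 P. aeruginosa PAO1 grown overnight in LB, diluted to OD600 0.001 and mixed with ⅔-step peptide dilutions, then incubated at 37 °C for 18–24 h. After MTT staining, the lowest concentration with no visible growth was read by eye as the MIC.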

[2] = tested on: Bacillus subtilis (strain BR151); assay type: cell-based; details: LB medium
How it was run: (§1)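 Broth microdilution MIC in LB; overnight cultures diluted to OD600 0.001 and mixed 1:1 with ⅔-serially diluted samples (stock 1 mg mL^−1 in H2O), 37° C for 18-24 h. MTT (0.1%) added; MIC read by eye as lowest concentration inhibiting visible growth (yellow).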

[3] = tested on: human red blood cells (hRBC); assay: Haemolysis assay, minimal haemolytic concentration (MHC); assay type: cell-based; details: hRBC in PBS pH 7.4, 4 h, room temperature
Protocol: To determine the minimal haemolytic concentration (MHC) stock solutions of 8 mg/mL of the peptide dendrimers in H2O were prepared and 50 μL were diluted serially by ½ in 50 μL PBS (pH 7.4) in 96-well plate (Cornstar or Nunc, polystyrene, untreated). Human red blood cells (hRBC) were obtained by centrifuging 1.5 mL of whole blood from friendly donors at 3000 rpm for 15 minutes. Plasma was discarded and the pellet was re-suspended in a 15 mL falcon tube up to 5 mL of PBS. The washing was repeated three times and the remaining pellet was re-suspended in 10 mL of PBS at a final hRBC concentration of 5%. The hRBC suspension (50 μL) was added to each well and the plate was incubated at room temperature for 4 hours. Minimal haemolytic concentration (MHC) end points were determined by visual inspection of the wells after the incubation period. Controls on each plate included a blank medium control (50 μl PBS+50 μl of hRBC suspension) and a haemolytic activity control (mQ-deionized water 50 μL+50 μL hRBC suspension).
MIC (minimal inhibitory concentration) and MHC (minimal haemolytic concentration, determined on human red blood cells (hRBC)) values are given in μg/mL. When no detectable haemolytic activity was observed, the last measured concentration was used for calculation of the therapeutic index. TI (therapeutic index)=MHC (μg/ml)/geometric mean of MIC (μg/ml). Larger values indicate greater antimicrobial specificity.

[4] = tested on: P. aeruginosa PA01 (WT); assay type: cell-based, Pseudomonas aeruginosa; details: WT
Protocol: (§2) Antimicrobial activity was assayed against P. aeruginosa PA01 (WT), P. aeruginosa PT1482 (A-), PT1485 (A-B-), PT1149 (A-B-C-algC), PT331 (Z61) (LPS mutants), P. aeruginosa PEJ2.6, PEJ9.1, ZEM1.A, ZEM9.A (clinical isolates from Université de Genève/Centre Médical Universitaire), Burkholderia cenocepacia (B. ceno), Staphylococcus aureus (S. aureus, MRSA strain) and Acinetobacter baumannii (A. baum) (clinical isolates from Université de Genève/Centre Médical Universitaire). To determine the minimal inhibitory concentration (MIC), microdilution broth method was used. A colony of bacteria was grown in MH-medium overnight at 37° C. The samples were prepared as stock solutions of 8 mg mL^−1 in H2O, diluted to the beginning concentration of 32, 64, 128 or 256 μg/mL in 300 μL MH-medium, added to the first well of 96-well microtiterplate (TPP, untreated) and diluted serially by ½. The concentration of the bacteria was quantified by measuring absorbance at 600 nm and diluted to OD600=0.022 in MH-medium. The sample solutions (150 μL) were mixed with 4 μL diluted bacterial suspension with a final inoculation of about of 5×10^5 CFU. The plates were incubated at 37° C. until satisfactory growth (˜18 h). For each test, two columns of the plate were kept for sterility control (SC, broth only) and growth control (GC, broth with bacterial inoculums, no antibiotics). The minimal inhibitory concentration (MIC) was defined as the lowest concentration of the antimicrobial substance (peptide dendrimer) that inhibited visible growth of the tested bacteria with the unaided eye. For microbiological study Polymyxin was used as references.

[5] = tested on: PAO1; assay type: cell-based, Pseudomonas aeruginosa; details: PAO1
Protocol: as §2

[6] = tested on: P. aeruginosa PEJ2.6, PEJ9.1, ZEM1.A, ZEM9.A (clinical isolates); assay type: cell-based, Pseudomonas aeruginosa; details: PEJ2.6, PEJ9.1, ZEM1.A, ZEM9.A (clinical isolates)
Protocol: as §2
(§3) Ten of the most promising compounds (FIG. 5) were tested for their efficiency against four clinical isolates of P. aeruginosa (ZEM9.A, ZEM1.A, PEJ2.6, PEJ9.1), one S. aureus (COL, MRSA reference strain) and one A. baumannii strain. For the experiments in Genève the peptide dendrimers and reference compounds (polymyxin) were dissolved in PBS and the assay was carried out in Müller-Hinton (MH) broth with a two-fold dilution.

[7] = tested on: Acinetobacter baumannii; assay type: cell-based
Protocol: as §2, §3

[8] = tested on: Staphylococcus aureus (COL, MRSA reference strain); assay type: cell-based; details: COL, reference strain
Protocol: as §2, §3

[9] = tested on: Escherichia coli (strain DH5α); assay type: cell-based; details: LB medium
How it was run: as §1

(KLL)4(KKLL)2(KKLL) [MIS-02]
MIC P. aeruginosa PAO1 [1]: 3 µg/mL | MIC B. subtilis BR151 [2]: 1 µg/mL | MHC (minimal haemolytic concentration) [3]: 15 µg/mL

CCCCCCCCCC(=O)NCCCC[C@H](NC(=O)[C@H](CC(C)C)NC(=O)[C@H](CCCCN)NC(=O)[C@H](CCCCNC(=O)[C@H](Cc1ccccc1)NC(=O)[C@H](CCN)NC(=O)[C@H](CCCCNC(=O)[C@H](CC(C)C)NC(=O)[C@@H](N)CCCN)NC(=O)[C@H](CC(C)C)NC(=O)[C@@H](N)CCCN)NC(=O)[C@H](Cc1ccccc1)NC(=O)[C@H](CCN)NC(=O)[C@H](CCCCNC(=O)[C@H](CC(C)C)NC(=O)[C@@H](N)CCCN)NC(=O)[C@H](CC(C)C)NC(=O)[C@@H](N)CCCN)C(N)=O [TNS-123, (OrnL)4(KDabF)2(KKLK-CO(CH2)8CH3)] (I: H-[Orn]LK([Leu-Orn])[Dab]FKKLK(Decanoyl)-NH2 / II: H-[Orn]LK([Leu-Orn])[Dab]F; amide I:6-II:C; N-terminus assumed)
MIC (MH) [4]: 2 µg/mL (≈ 0.859 µM) | MIC PAO1 [4]: 4 to 8 µg/mL | MIC (MH + 30% human serum) [5]: 8 to 16 µg/mL | MIC P. aeruginosa MDR clinical isolate PEJ2.6 [6]: 16 µg/mL (≈ 6.87 µM) | MIC P. aeruginosa MDR clinical isolate PEJ9.1 [6]: >64 µg/mL | MIC P. aeruginosa MDR clinical isolate ZEM1A [6]: 4 µg/mL (≈ 1.72 µM) | MIC P. aeruginosa MDR clinical isolate ZEM9A [6]: 8 µg/mL (≈ 3.43 µM) | MIC A. baumannii ATCC19606 [7]: 32 µg/mL (≈ 13.7 µM) | MIC S. aureus COL [8]: 32 to 64 µg/mL

CCCCCCCCCC(=O)NCCCC[C@H](NC(=O)[C@H](CC(C)C)NC(=O)[C@H](CCCCN)NC(=O)[C@H](CCCCNC(=O)[C@H](CC(C)C)NC(=O)[C@H](CCN)NC(=O)[C@H](CCCCNC(=O)[C@H](Cc1ccccc1)NC(=O)[C@@H](N)CCCN)NC(=O)[C@H](Cc1ccccc1)NC(=O)[C@@H](N)CCCN)NC(=O)[C@H](CC(C)C)NC(=O)[C@H](CCN)NC(=O)[C@H](CCCCNC(=O)[C@H](Cc1ccccc1)NC(=O)[C@@H](N)CCCN)NC(=O)[C@H](Cc1ccccc1)NC(=O)[C@@H](N)CCCN)C(N)=O [TNS-122, (OrnF)4(KDabL)2(KKLK-CO(CH2)8CH3] (I: H-[Orn]FK([Phe-Orn])[Dab]LKKLK(Decanoyl)-NH2 / II: H-[Orn]FK([Phe-Orn])[Dab]L; amide I:6-II:C; N-terminus assumed)
MIC (MH) [4]: 2 µg/mL (≈ 0.834 µM) | MIC PAO1 [4]: 4 (8) μg/mL | MIC (MH + 30% human serum) [5]: 8 µg/mL | MIC P. aeruginosa MDR clinical isolate PEJ2.6 [6]: 4 µg/mL (≈ 1.67 µM) | MIC P. aeruginosa MDR clinical isolate PEJ9.1 [6]: 32 µg/mL (≈ 13.3 µM) | MIC P. aeruginosa MDR clinical isolate ZEM1A [6]: 4 µg/mL (≈ 1.67 µM) | MIC P. aeruginosa MDR clinical isolate ZEM9A [6]: 8 µg/mL (≈ 3.34 µM) | MIC A. baumannii ATCC19606 [7]: 8 to 16 µg/mL | MIC S. aureus COL [8]: 8 to 16 µg/mL

CCCCCCCCCC(=O)NCCCC[C@H](NC(=O)[C@H](CC(C)C)NC(=O)[C@H](CCCCN)NC(=O)[C@H](CCCCNC(=O)[C@H](CC(C)C)NC(=O)[C@H](CCCCN)NC(=O)[C@H](CCCCNC(=O)[C@H](CC(C)C)NC(=O)[C@@H](N)CCCCN)NC(=O)[C@H](CC(C)C)NC(=O)[C@@H](N)CCCCN)NC(=O)[C@H](CC(C)C)NC(=O)[C@H](CCCCN)NC(=O)[C@H](CCCCNC(=O)[C@H](CC(C)C)NC(=O)[C@@H](N)CCCCN)NC(=O)[C@H](CC(C)C)NC(=O)[C@@H](N)CCCCN)C(N)=O [Compound G2KLC10, (KL)4(KKL)2(KKL-CO(CH2)8CH3)] (I: H-KLK([Leu-Lys])KLKKLK(Decanoyl)-NH2 / II: H-KLK([Leu-Lys])KL; amide I:6-II:C; N-terminus assumed)
MIC (MH) [4]: 4 µg/mL (≈ 1.69 µM) | MIC PAO1 [4]: 8 µg/mL (≈ 3.37 µM) | MIC (MH + 30% human serum) [5]: 8 to 16 µg/mL | MIC P. aeruginosa MDR clinical isolate PEJ2.6 [6]: 8 µg/mL (≈ 3.37 µM) | MIC P. aeruginosa MDR clinical isolate PEJ9.1 [6]: 64 µg/mL (≈ 27 µM) | MIC P. aeruginosa MDR clinical isolate ZEM1A [6]: 4 µg/mL (≈ 1.69 µM) | MIC A. baumannii ATCC19606 [7]: 16 µg/mL (≈ 6.74 µM) | MIC S. aureus COL [8]: 64 µg/mL (≈ 27 µM)

CCCCCCCCCC(=O)NCCCC[C@H](NC(=O)[C@H](CC(C)C)NC(=O)[C@H](CCCCN)NC(=O)[C@H](CCCCNC(=O)[C@H](CC(C)C)NC(=O)[C@H](CCN)NC(=O)[C@H](CCCCNC(=O)[C@H](Cc1ccccc1)NC(=O)[C@@H](N)CCCNC(=N)N)NC(=O)[C@H](Cc1ccccc1)NC(=O)[C@@H](N)CCCNC(=N)N)NC(=O)[C@H](CC(C)C)NC(=O)[C@H](CCN)NC(=O)[C@H](CCCCNC(=O)[C@H](Cc1ccccc1)NC(=O)[C@@H](N)CCCNC(=N)N)NC(=O)[C@H](Cc1ccccc1)NC(=O)[C@@H](N)CCCNC(=N)N)C(N)=O [TNS-124, (RF)4(KDabL)2(KKLK-CO(CH2)8CH3)] (I: H-RFK([Phe-Arg])[Dab]LKKLK(Decanoyl)-NH2 / II: H-RFK([Phe-Arg])[Dab]L; amide I:6-II:C; N-terminus assumed)
MIC (MH) [4]: 4 to 8 µg/mL | MIC PAO1 [4]: 8 µg/mL (≈ 3.12 µM) | MIC (MH + 30% human serum) [5]: 16 to 32 µg/mL | MIC P. aeruginosa MDR clinical isolate PEJ2.6 [6]: 8 µg/mL (≈ 3.12 µM) | MIC P. aeruginosa MDR clinical isolate PEJ9.1 [6]: 32 µg/mL (≈ 12.5 µM) | MIC P. aeruginosa MDR clinical isolate ZEM1A [6]: 4 to 8 µg/mL | MIC P. aeruginosa MDR clinical isolate ZEM9A [6]: 16 to 32 µg/mL | MIC A. baumannii ATCC19606 [7]: 8 to 16 µg/mL | MIC S. aureus COL [8]: 8 µg/mL (≈ 3.12 µM)

(DabL)8(KDabW)4(KDabW)2(KDabL) [MSt-204]
MIC P. aeruginosa PAO1 [1]: 3 µg/mL | MIC B. subtilis BR151 [2]: 2 µg/mL | MIC E. coli DH5α [9]: 2 µg/mL | MHC (minimal haemolytic concentration) [3]: 146 µg/mL

(LA)8(KLK)4(KLA)2(KKL) [MSt-120]
MIC P. aeruginosa PAO1 [1]: 14 µg/mL | MIC E. coli DH5α [9]: considerably less active | MHC (minimal haemolytic concentration) [3]: 584 µg/mL

CC(C)C[C@H](NC(=O)[C@H](CCCCN)NC(=O)[C@H](CCCCNC(=O)[C@H](CC(C)C)NC(=O)[C@H](CCCCN)NC(=O)[C@H](CCCCNC(=O)[C@H](CC(C)C)NC(=O)[C@H](CCCCN)NC(=O)[C@@H](N)CCCCN)NC(=O)[C@H](CC(C)C)NC(=O)[C@H](CCCCN)NC(=O)[C@@H](N)CCCCN)NC(=O)[C@H](CC(C)C)NC(=O)[C@H](CCCCN)NC(=O)[C@H](CCCCNC(=O)[C@H](CC(C)C)NC(=O)[C@H](CCCCN)NC(=O)[C@@H](N)CCCCN)NC(=O)[C@H](CC(C)C)NC(=O)[C@H](CCCCN)NC(=O)[C@@H](N)CCCCN)C(N)=O [MSt-119, (KKL)4(KKL)2(KKL)] (I: H-KKLK([Leu-Lys-Lys])KLKKL-NH2 / II: H-KKLK([Leu-Lys-Lys])KL; amide I:7-II:C)
MIC P. aeruginosa PAO1 [1]: 3 µg/mL (≈ 1.15 µM) | MIC B. subtilis BR151 [2]: 20 µg/mL (≈ 7.68 µM) | MHC (minimal haemolytic concentration) [3]: 677 µg/mL
